From paper PMC8752738, “A propolis-derived small molecule ameliorates metabolic syndrome in obese mice by targeting the CREB/CRTC2 transcriptional complex” (Nature Communications, 2022)
Where “and” joins values, the source holds several entries; their conditions need not be identical. Identical values can stand only once.

How the values were obtained:
[1] = target: T1, GST-CREB / FLAG-CRTC2 interaction (Homo sapiens, UniProt P16220); assay: GST-pull-down of FLAG-CRTC2 from HEK293T lysates by GST-CREB beads; format: biochemical
T1 construct: made in house; host or cells: GST-CREB beads (pGEX5X-1); FLAG-CRTC2 expressed in HEK293T cells
T1 sequence (P16220 whole entry): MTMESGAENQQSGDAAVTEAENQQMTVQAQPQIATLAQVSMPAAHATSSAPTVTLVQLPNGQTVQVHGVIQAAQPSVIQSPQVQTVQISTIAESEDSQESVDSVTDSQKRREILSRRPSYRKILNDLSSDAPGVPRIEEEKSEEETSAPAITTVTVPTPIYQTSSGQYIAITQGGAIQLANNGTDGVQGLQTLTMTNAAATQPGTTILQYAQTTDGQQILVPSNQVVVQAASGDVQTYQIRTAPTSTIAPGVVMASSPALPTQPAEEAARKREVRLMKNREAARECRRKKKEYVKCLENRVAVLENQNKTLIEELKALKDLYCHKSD
Text: To further confirm whether APC disrupts the protein association between CREB and CRTC2, we performed GST-pull-down assays in which GST-CREB beads were used to immunoprecipitated FLAG-tagged CRTC2 proteins that were expressed in HEK293T cells. As expected, APC attenuated the amounts of FLAG-CRTC2 proteins recovered by GST-CREB beads from HEK293T cell lysates (Fig. 2a). […] In contrast, APC had little effect on the association of GST-CREB with HA-P300 (Supplementary Fig. 2a), as well as the interaction between endogenous CRTC2 and CBP proteins (Fig. 2c). […]
Fig. 2 APC blocks interaction between CREB and CRTC2. a Analysis of GST-CREB immunoprecipitated with overexpressed FLAG-CRTC2 from the lysates of HEK293T cells. […] Data are represented as mean ± SEM); P values were determined by one-way ANOVA followed Dunnett’s multiple comparisons test. b Analysis of HA-CRTC2 immunoprecipitated with endogenous CREB from primary hepatocyte lysates. […] Data are represented as mean ± SEM; P values were determined by one-way ANOVA followed Dunnett’s multiple comparisons test. c Immunoblotting analysis of endogenous CREB, CRTC2, and CBP interaction by an anti-CRTC2 antibody from the lysate of primary hepatocytes. […] Data are represented as mean ± SEM; P values were determined by one-way ANOVA followed Dunnett’s multiple comparisons test (compared with APC = 0). […]

[2] = target: T2, endogenous CRTC2 / CBP interaction (Mus musculus, UniProt P45481+Q3U182); assay: Co-immunoprecipitation by anti-CRTC2 antibody, primary hepatocytes: CBP; format: cell-based
T2 construct: endogenous in cells; host or cells: mouse primary hepatocytes
T2 sequence (Q3U182 2-692 limits assumed): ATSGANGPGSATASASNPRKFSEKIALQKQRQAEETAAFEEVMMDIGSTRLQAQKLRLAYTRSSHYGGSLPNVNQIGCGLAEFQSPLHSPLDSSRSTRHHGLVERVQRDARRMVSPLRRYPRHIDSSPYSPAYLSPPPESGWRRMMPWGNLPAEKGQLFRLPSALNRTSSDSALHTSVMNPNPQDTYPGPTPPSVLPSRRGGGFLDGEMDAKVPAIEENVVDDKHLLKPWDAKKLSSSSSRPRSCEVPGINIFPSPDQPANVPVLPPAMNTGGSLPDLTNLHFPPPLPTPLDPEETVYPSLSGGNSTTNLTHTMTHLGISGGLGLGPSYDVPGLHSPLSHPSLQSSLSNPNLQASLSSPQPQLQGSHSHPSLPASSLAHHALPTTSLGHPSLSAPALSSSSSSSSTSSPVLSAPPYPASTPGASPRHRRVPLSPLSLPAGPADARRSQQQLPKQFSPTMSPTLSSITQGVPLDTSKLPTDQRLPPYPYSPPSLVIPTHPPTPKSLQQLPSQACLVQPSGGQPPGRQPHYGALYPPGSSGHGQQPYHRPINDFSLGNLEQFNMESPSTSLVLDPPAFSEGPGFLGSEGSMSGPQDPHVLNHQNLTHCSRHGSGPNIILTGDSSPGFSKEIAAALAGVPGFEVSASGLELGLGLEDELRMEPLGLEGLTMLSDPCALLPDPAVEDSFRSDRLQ
T2 sequence (P45481 2-2441 limits assumed): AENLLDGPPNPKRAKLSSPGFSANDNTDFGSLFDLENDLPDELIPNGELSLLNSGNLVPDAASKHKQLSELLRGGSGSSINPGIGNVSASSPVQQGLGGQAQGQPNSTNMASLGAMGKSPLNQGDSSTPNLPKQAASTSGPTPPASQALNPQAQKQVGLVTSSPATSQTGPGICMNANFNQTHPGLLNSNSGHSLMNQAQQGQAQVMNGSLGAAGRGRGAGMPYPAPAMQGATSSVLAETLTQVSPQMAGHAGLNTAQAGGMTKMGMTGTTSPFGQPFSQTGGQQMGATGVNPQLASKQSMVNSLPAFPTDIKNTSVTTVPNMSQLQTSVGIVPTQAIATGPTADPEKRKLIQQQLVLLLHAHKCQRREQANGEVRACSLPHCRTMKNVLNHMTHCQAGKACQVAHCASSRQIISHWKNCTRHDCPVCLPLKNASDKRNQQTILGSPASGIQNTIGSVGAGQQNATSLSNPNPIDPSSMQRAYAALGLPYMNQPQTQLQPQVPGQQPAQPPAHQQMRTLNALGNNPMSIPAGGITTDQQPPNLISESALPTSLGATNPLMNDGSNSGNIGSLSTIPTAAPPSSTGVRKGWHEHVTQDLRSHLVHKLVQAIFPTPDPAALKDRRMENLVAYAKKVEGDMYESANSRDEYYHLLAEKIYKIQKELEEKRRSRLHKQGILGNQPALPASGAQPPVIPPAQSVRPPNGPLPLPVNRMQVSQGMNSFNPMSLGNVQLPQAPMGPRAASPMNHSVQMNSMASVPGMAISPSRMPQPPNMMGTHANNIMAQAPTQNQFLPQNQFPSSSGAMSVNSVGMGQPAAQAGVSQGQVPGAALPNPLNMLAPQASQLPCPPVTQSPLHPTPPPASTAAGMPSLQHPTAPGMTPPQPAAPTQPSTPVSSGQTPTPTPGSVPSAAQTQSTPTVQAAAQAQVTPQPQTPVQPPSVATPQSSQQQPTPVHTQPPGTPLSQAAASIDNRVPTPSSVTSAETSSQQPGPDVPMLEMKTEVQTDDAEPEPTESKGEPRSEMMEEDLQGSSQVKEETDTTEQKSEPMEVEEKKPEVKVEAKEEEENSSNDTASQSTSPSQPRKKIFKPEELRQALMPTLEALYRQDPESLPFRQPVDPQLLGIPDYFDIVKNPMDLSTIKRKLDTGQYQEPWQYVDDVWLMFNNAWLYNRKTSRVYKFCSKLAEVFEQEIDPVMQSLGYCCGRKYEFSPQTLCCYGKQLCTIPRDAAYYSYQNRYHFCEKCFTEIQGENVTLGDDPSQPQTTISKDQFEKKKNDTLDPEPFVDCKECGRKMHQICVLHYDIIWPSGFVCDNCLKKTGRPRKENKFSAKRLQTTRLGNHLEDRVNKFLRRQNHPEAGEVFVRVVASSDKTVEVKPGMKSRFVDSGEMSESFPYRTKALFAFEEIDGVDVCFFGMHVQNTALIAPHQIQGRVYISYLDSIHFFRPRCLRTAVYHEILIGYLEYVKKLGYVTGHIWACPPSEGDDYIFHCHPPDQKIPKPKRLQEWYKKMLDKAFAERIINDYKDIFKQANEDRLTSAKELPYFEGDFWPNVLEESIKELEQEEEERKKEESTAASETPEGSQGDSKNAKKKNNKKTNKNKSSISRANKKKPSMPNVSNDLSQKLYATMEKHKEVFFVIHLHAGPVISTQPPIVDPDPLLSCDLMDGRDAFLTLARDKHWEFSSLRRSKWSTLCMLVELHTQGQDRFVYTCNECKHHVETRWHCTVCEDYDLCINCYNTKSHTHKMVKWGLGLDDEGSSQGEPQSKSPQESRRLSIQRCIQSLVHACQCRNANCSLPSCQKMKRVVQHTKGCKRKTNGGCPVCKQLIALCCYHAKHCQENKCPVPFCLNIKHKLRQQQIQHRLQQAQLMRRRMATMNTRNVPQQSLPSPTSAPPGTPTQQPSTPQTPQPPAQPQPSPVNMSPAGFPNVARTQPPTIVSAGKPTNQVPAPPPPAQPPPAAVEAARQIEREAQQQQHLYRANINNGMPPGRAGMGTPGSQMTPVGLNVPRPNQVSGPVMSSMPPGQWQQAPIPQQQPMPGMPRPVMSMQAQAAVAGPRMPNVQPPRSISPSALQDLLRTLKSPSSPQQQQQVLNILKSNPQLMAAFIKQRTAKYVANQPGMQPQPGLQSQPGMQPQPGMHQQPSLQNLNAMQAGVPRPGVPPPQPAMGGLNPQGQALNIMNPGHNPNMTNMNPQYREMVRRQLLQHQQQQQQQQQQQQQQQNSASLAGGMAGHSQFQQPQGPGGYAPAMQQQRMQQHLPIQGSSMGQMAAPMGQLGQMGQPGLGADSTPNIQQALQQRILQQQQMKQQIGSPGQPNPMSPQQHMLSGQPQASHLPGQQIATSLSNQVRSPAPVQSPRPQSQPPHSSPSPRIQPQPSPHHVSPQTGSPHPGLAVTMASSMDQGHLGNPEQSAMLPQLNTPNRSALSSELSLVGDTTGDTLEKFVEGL
Description: Fig. 2 APC blocks interaction between CREB and CRTC2. a Analysis of GST-CREB immunoprecipitated with overexpressed FLAG-CRTC2 from the lysates of HEK293T cells. APC (10 μM) was added to the culture media for 1 h and the following IP mixture. The relative gray density of FLAG in GST-pull-down fraction is shown as a bar graph (bottom). One of three independent experiments is presented (top, n = 3). Data are represented as mean ± SEM); P values were determined by one-way ANOVA followed Dunnett’s multiple comparisons test. b Analysis of HA-CRTC2 immunoprecipitated with endogenous CREB from primary hepatocyte lysates. […] Data are represented as mean ± SEM; P values were determined by one-way ANOVA followed Dunnett’s multiple comparisons test. c Immunoblotting analysis of endogenous CREB, CRTC2, and CBP interaction by an anti-CRTC2 antibody from the lysate of primary hepatocytes. […] Data are represented as mean ± SEM; P values were determined by two-way ANOVA followed Bonferroni’s multiple comparisons test. d Immunoblotting analysis of protein GST-CREB recovered HIS-CRTC2-S171A proteins purified from E. coli. […] Data are represented as mean ± SEM; P values were determined by one-way ANOVA followed Dunnett’s multiple comparisons test (compared with APC = 0). […]

[3] = target: T3, CREB / CRTC1 interaction (Homo sapiens, UniProt P16220); assay: Co-immunoprecipitation of GFP-CRTC1 by MYC-CREB, HEK293T; format: cell-based; conditions: overexpression HEK293T cells, APC 10 μM
T3 construct: expressed in transfected cells; host or cells: HEK293T
T3 sequence (P16220 whole entry): as the sequence (P16220 whole entry) above
Description: 1 Supplementary Figure 2.
2 a) Immunoblot of HA-P300 recovered from HEK293T cell lysate using GST-CREB beads. APC
3 (10 μM) was incubated with cells for 1-h before FKS (10 nM) stimulation and was included in the
4 following pull-down mixtures (n=3). One of two independent experiments presented here.
5 b) Immunoblot for recovered GFP-CRTC1 or (c) GFP-CRTC3 immunoprecipitated by MYC-CREB
6 from overexpression HEK293T cell line. APC (10 μM) was incubated with cells for 1-h before FKS
7 (10 nM) stimulation and was included in the following pull-down mixtures. One of two independent
8 experiments presented here.
9 d) SPR sonogram traces of APC binding with HIS-CREB proteins immobilized to NTA-chip. The
10 concentration series of APC was as indicated.
11 e) SPR sonogram traces of APC flowing through HIS-CRTC2-S171A proteins immobilized on
12 NTA-chip. The concentration of APC was as indicated.
13 f) The luciferase enzymatic activity of HEK293T incubated with APC. Cells over-expressed
14 luciferase CRE-Luc reporter and were stimulated by FSK (10 nM) for 5-h before lysis, which was
15 then incubated with APC (concentration indicated) for 30 min before luciferase activity determination
16 (n=3 per treatment). Data are represented as mean ± SEM. *, p < 0.05; **, p < 0.01; p values were
17 determined by one-way ANOVA followed Dunnett’s multiple comparisons test. […]

For `CC(C)=CCc1cc(C=CC(=O)O)cc(CC=C(C)C)c1O` [APC, 3,5-diprenyl-4-hydroxycinnamic acid], the “Pull down FLAG/GST band dentsity (FLAG in IP fraction)” value ([1]; Fig 2a source data, replicates, GST-CREB beads +, FLAG-CRTC2 +, APC + (10 μM)) was 1.359 FOLDS and 1.3596 FOLDS and 1.382 FOLDS, the “FLAG-CRTC2 recovered by GST-CREB beads” value ([1]; HEK293T lysates, APC 10 μM) was “attenuated” and the “CBP/CRTC2 band gray signal, CRTC2-COIP fraction” value ([2]; Fig 2c replicates, APC+ (10 μM)) was 0.6163 and 0.6152 and 0.6031. For the same compound, the “interaction between endogenous CRTC2 and CBP” value ([2]; primary hepatocytes, APC 10 μM) was “little effect” and the “interaction of CREB and CRTC1” value [3] was “attenuated”.
